{"source": "paper PMC7004565", "about": "“Nucleotide inhibition of the pancreatic ATP-sensitive K^+ channel explored with patch-clamp fluorometry” (eLife, 2020)", "key": {"[1]": {"biological_target": "Kir6.2*,C166S-GFP + SUR1 (Homo sapiens, UniProt Q14654, C166S)", "sequence (Q14654 whole entry C166S, the tested form may be a part)": "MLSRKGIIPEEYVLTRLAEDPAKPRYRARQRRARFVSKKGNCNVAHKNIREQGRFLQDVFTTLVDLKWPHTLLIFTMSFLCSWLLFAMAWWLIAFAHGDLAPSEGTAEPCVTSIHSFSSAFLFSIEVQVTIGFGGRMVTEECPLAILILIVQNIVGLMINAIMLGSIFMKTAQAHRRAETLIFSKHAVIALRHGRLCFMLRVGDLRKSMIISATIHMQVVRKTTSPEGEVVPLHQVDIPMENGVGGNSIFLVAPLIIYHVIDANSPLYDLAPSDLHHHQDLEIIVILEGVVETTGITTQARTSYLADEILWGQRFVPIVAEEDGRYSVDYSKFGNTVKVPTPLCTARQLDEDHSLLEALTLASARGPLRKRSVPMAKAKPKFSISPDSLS", "sequence (Q09428 whole entry partner, the tested form may be a part)": "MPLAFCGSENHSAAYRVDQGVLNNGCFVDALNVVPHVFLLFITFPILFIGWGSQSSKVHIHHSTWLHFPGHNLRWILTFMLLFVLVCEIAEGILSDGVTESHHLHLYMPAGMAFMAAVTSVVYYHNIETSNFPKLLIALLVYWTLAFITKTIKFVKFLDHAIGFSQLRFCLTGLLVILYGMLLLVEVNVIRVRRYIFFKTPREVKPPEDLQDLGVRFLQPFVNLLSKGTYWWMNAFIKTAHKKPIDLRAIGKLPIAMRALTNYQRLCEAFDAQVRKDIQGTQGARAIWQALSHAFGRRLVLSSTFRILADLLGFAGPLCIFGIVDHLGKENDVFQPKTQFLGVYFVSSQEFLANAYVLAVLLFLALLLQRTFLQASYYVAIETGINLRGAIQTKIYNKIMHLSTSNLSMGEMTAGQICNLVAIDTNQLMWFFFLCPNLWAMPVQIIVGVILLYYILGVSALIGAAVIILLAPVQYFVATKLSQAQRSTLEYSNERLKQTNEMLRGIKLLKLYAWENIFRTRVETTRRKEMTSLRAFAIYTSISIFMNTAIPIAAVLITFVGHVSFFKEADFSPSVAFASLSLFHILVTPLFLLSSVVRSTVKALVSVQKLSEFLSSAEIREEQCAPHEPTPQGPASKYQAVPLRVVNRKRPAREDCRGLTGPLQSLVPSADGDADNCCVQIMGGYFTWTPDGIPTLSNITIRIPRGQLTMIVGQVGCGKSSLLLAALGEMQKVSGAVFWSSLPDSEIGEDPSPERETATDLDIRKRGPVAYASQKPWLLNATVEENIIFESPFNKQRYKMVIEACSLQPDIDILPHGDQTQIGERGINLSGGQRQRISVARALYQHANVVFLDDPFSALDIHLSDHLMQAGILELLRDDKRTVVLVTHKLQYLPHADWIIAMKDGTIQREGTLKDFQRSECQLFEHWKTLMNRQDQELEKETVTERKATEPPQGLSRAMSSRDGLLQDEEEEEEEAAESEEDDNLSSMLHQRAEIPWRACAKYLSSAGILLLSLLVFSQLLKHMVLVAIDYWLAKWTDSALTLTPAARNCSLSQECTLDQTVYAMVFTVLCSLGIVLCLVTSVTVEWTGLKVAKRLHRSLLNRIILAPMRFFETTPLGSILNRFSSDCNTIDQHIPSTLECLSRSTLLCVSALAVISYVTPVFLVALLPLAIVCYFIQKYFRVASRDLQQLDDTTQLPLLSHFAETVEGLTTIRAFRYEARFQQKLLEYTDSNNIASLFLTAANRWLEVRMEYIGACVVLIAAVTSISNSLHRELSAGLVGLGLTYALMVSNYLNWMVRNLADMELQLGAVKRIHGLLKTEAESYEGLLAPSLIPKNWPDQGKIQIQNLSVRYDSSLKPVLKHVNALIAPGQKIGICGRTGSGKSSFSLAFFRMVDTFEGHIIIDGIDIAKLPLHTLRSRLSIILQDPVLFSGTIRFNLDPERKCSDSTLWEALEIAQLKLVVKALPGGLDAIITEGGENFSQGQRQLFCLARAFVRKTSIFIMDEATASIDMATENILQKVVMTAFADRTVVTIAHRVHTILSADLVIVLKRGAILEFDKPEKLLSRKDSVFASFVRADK", "test": "FRET (ANAP quenching) nucleotide binding in unroofed membranes", "design": "ANAP labelling is specific and only full-length Kir6.2 is expressed at the cell membrane; expressed in transfected cells; host or cells: HEK-293T", "details": "Hill fit", "excerpt": "To measure nucleotide binding, cells transfected with Kir6.2*-GFP + SUR1 were briefly sonicated, leaving behind unroofed plasma membrane fragments ([Heuser, 2000]; [Zagotta et al., 2016]; [Puljung et al., 2019]) containing ANAP-labelled KATP channels with the intracellular nucleotide-binding sites exposed to the bath solution. The sample was excited with a 385 nm LED and emitted fluorescence from the membrane fragments was passed through a spectrometer, allowing us to separate ANAP, GFP, and TNP-ATP fluorescence by peak wavelength (Figure 1E,F). As expected from FRET, increasing the concentration of TNP-ATP caused a decrement in the ANAP peak at 472 nm and a concomitant increase in the TNP-ATP peak at 561 nm (Figure 1F). We used the quenching of the ANAP peak as a direct measure of TNP-ATP binding as this signal was specific to KATP. In contrast, the peak TNP-ATP fluorescence may include contributions from both specific and non-specific nucleotide binding, as well as direct excitation of TNP-ATP in solution by the 385 nm excitation light. Due to the sharp cut-off of the GFP emission spectrum at shorter wavelengths, our measurements of peak ANAP fluorescence were unaffected by the presence of the GFP tag on Kir6.2.\nEpifluorescence imaging and spectroscopy were performed using a Nikon Eclipse TE2000-U microscope with a 60x water immersion objective (Plan Apo VC, NA = 1.2, Nikon; Kingston upon Thames, UK) or a 100x oil immersion objective (Nikon, Apo TIRF, NA = 1.49). […] Fluorescence spectra were collected by exciting ANAP as above but using a 400 nm long-pass emission filter (ThorLabs), then passing emitted light through an IsoPlane 160 Spectrometer (Princeton Instruments; Trenton, NJ) with a 300 grooves mm^-1 grating. […]\nUnroofed membranes were prepared as described previously ([Heuser, 2000]; [Zagotta et al., 2016]; [Puljung et al., 2019]). […] Unroofed membrane fragments were nearly invisible in bright-field images and identified by their GFP and ANAP fluorescence. […]\nFluorescence spectra were collected as described above. […]"}, "[2]": {"biological_target": "T1, Kir6.2-GFP (no SUR1) (Homo sapiens, UniProt Q14654)", "T1 construct": "ANAP labelling is specific and only full-length Kir6.2 is expressed at the cell membrane; expressed in transfected cells; host or cells: HEK-293T", "T1 sequence (Q14654 1-390)": "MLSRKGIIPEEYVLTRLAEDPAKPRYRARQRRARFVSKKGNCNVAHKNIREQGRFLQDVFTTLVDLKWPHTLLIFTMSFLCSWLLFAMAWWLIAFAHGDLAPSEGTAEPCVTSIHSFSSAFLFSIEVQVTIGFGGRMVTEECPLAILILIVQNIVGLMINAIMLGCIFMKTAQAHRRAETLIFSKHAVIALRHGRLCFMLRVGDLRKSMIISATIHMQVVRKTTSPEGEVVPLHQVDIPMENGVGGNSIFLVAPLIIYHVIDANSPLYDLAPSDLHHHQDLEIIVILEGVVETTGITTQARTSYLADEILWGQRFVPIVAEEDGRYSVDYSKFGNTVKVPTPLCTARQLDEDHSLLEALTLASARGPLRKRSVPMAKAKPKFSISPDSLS", "test": "Current inhibition in excised inside-out patches", "format": "biochemical", "details": "excised inside-out patches, no SUR1, Mg2+-free, Hill fit", "method": "Currents were measured from patches from cells expressing KATP that were excised in the absence of Mg^2+. Under such conditions, nucleotides can bind to both sites on SUR1, but no activation occurs, allowing inhibitory currents to be measured in isolation ([Gribble et al., 1998]; [Ueda et al., 1999]; [Puljung et al., 2019])."}}, "note": "Where “and” joins values, the source holds several entries; their conditions need not be identical. Equal values may be shown once."}
{"compound": "Nc1ncnc2c1ncn2[C@@H]1O[C@H](COP(=O)(O)OP(=O)(O)OP(=O)(O)O)[C@H]2OC3(O[C@H]21)C([N+](=O)[O-])=CC(=[N+]([O-])[O-])C=C3[N+](=O)[O-]", "note": "(some centres unmarked) [TNP-ATP, trinitrophenyl-ATP]", "values": [{"measurement": "h (Hill coefficient) fluorescence quenching", "setting": "[1]", "value": 0.92}, {"measurement": "Emax", "setting": "[1]; fraction, read-out: Emax fluorescence quenching", "value": 96, "unit": "%"}, {"measurement": "EC50", "setting": "[1]; n = 12, read-out: EC50 fluorescence quenching", "value": "32 µM and 31.6 µM"}, {"measurement": "IC50", "setting": "[2]; IC50 current inhibition", "value": "273 µM and 275 µM"}, {"measurement": "h (Hill coefficient) current inhibition", "setting": "[2]", "value": 1.09}]}
